Laboratory results as given in BindingDB's records for doi:10.3109/14756366.2011.649267 (South Dakota State University, 2013).

Molecular target: T1, Glutaredoxin-1 (Human, UniProt P35754)
T1 sequence (P35754 whole entry): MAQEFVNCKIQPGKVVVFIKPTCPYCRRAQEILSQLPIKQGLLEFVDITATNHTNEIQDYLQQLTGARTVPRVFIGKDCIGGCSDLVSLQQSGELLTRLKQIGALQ
Test: GRX Assay
Conditions: pH 8; 25 °C
Method: Human GRX-1 (0.25 unit/mL) was incubated at 25 °C with increasing concentrations of 2-AAPA (25, 50, 100, and 200 μM) and BSA (1 mg/mL). Aliquots were withdrawn for determination of GRX activity at 3, 10, and 20 min. Control incubations without 2-AAPA were conducted in parallel. The aliquots were added to the GRX assay solution, and enzyme activity was determined from a coupled reaction with GR based on a literature reported procedure with minor modification. In this assay, a mixed disulfide between GSH and the mercaptoethanol moiety derived from 2-hydroxyethyldisulfide (HED) served as the substrate for GRX; briefly GSH (10 mM) and HED (7 mM) were premixed in water for 5 min before transferring onto ice. The final GRXassay solution contained GSH (1 mM), HED (0.7mM), GR (0.02 units/mL), NADPH (0.2 mM), and bovine serum albumin (BSA, 1 mg/mL) in Trisbuffer (pH 8, 0.1 M). Theactivity was determined by monitoring the disappearance of NADPH spectrophotometrically at λ = 340 nm [Holmgren et al., Meth. Enzymol., 252:283-292].

Ki: 91.3 µM
SMILES: CC(=O)NC(CSC(=S)Nc1ccc(NC(=S)SCC(NC(C)=O)C(=O)O)cc1)C(=O)O (stereo unspecified) [2-AAPA]
